Experimental data published in PubChem BioAssay AID2060508 (Molecular Pharmacology Branch, DTP, NCI, 2025).

Tested on: 454973-116-R2-J3-PDC spheroids, viability, % test/control
Experiment: Anticancer human tumor 454973-116-R2-J3-PDC patient-derived pancreatic carcinoma cell line growth inhibition [GQUAD]
Conditions: spheroids with HUVEC and MSC; for IC50: curve of first compound; for viability, T/C: stronger effect = lower value; active = viability on the fitted dose curve at most 10% of control; inactive = the rest
In short: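 Tumor cells were grown as complex spheroids with HUVEC endothelial cells and mesenchymal stem cells as stroma. G-quadruplex stabilizers were combined with targeted agents over half-log dilutions from near the clinical Cmax, or from 10 microM.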

[1] = second compound 0.0316 µM, first compound 0.0316 µM
[2] = second compound 0.0316 µM, first compound 0.1 µM
[3] = second compound 0.0316 µM, first compound 0.316 µM
[4] = second compound 0.0316 µM, first compound 1 µM
[5] = second compound 0.0316 µM, first compound 3.16 µM
[6] = second compound 0.0316 µM, first compound 10 µM
[7] = second compound 0.1 µM, first compound 0.0316 µM
[8] = second compound 0.1 µM, first compound 0.1 µM
[9] = second compound 0.1 µM, first compound 0.316 µM
[10] = second compound 0.1 µM, first compound 1 µM
[11] = second compound 0.1 µM, first compound 3.16 µM
[12] = second compound 0.1 µM, first compound 10 µM
[13] = second compound 0.316 µM, first compound 0.0316 µM
[14] = second compound 0.316 µM, first compound 0.1 µM
[15] = second compound 0.316 µM, first compound 0.316 µM
[16] = second compound 0.316 µM, first compound 1 µM
[17] = second compound 0.316 µM, first compound 3.16 µM
[18] = second compound 0.316 µM, first compound 10 µM
[19] = second compound 1 µM, first compound 0.0316 µM
[20] = second compound 1 µM, first compound 0.1 µM
[21] = second compound 1 µM, first compound 0.316 µM
[22] = second compound 1 µM, first compound 1 µM
[23] = second compound 1 µM, first compound 3.16 µM
[24] = second compound 1 µM, first compound 10 µM
[25] = second compound 3.16 µM, first compound 0.0316 µM
[26] = second compound 3.16 µM, first compound 0.1 µM
[27] = second compound 3.16 µM, first compound 0.316 µM
[28] = second compound 3.16 µM, first compound 1 µM
[29] = second compound 3.16 µM, first compound 3.16 µM
[30] = second compound 3.16 µM, first compound 10 µM
[31] = second compound 10 µM, first compound 0.0316 µM
[32] = second compound 10 µM, first compound 0.1 µM
[33] = second compound 10 µM, first compound 0.316 µM
[34] = second compound 10 µM, first compound 1 µM
[35] = second compound 10 µM, first compound 3.16 µM
[36] = second compound 10 µM, first compound 10 µM
[37] = second compound 0.0316 µM, first compound 0.000999 µM
[38] = second compound 0.0316 µM, first compound 0.00316 µM
[39] = second compound 0.0316 µM, first compound 0.00999 µM
[40] = second compound 0.0316 µM, first compound 0.0999 µM
[41] = second compound 0.1 µM, first compound 0.000999 µM
[42] = second compound 0.1 µM, first compound 0.00316 µM
[43] = second compound 0.1 µM, first compound 0.00999 µM
[44] = second compound 0.1 µM, first compound 0.0999 µM
[45] = second compound 0.316 µM, first compound 0.000999 µM
[46] = second compound 0.316 µM, first compound 0.00316 µM
[47] = second compound 0.316 µM, first compound 0.00999 µM
[48] = second compound 0.316 µM, first compound 0.0999 µM
[49] = second compound 1 µM, first compound 0.000999 µM
[50] = second compound 1 µM, first compound 0.00316 µM
[51] = second compound 1 µM, first compound 0.00999 µM
[52] = second compound 1 µM, first compound 0.0999 µM
[53] = second compound 3.16 µM, first compound 0.000999 µM
[54] = second compound 3.16 µM, first compound 0.00316 µM
[55] = second compound 3.16 µM, first compound 0.00999 µM
[56] = second compound 3.16 µM, first compound 0.0999 µM
[57] = second compound 10 µM, first compound 0.000999 µM
[58] = second compound 10 µM, first compound 0.00316 µM
[59] = second compound 10 µM, first compound 0.00999 µM
[60] = second compound 10 µM, first compound 0.0999 µM
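Also: spheroids exposed to compounds for seven days.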
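For viability, T/C in this document: 100% = DMSO vehicle control viability.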

C=CC(=O)N1CCN(c2nc(=O)n(-c3c(C)ccnc3C(C)C)c3nc(-c4c(O)cccc4F)c(F)cc23)C(C)C1 (stereo not given) + Cc1[nH]c2ccc(F)cc2c1-c1nc2c3cccnc3c3ncccc3c2[nH]1
inactive: viability, T/C [1] 110% | viability, T/C [2] 107% | viability, T/C [3] 115% | viability, T/C [4] 109% | viability, T/C [5] 113% | viability, T/C [6] 114% | viability, T/C [7] 100% | viability, T/C [8] 102% | viability, T/C [9] 114% | viability, T/C [10] 108% | viability, T/C [11] 125% | viability, T/C [12] 109% | viability, T/C [13] 103% | viability, T/C [14] 111% | viability, T/C [15] 107% | viability, T/C [16] 100% | viability, T/C [17] 119% | viability, T/C [18] 113% | viability, T/C [19] 107% | viability, T/C [20] 97% | viability, T/C [21] 112% | viability, T/C [22] 103% | viability, T/C [23] 114% | viability, T/C [24] 123% | viability, T/C [25] 96.2% | viability, T/C [26] 95.3% | viability, T/C [27] 96.4% | viability, T/C [28] 111% | viability, T/C [29] 113% | viability, T/C [30] 107% | viability, T/C [31] 93.8% | viability, T/C [32] 81.8% | viability, T/C [33] 104% | viability, T/C [34] 92.8% | viability, T/C [35] 89.6% | viability, T/C [36] 83.6%
> 10000 nM: IC50 (second compound 0.0316 µM) | IC50 (second compound 0.1 µM) | IC50 (second compound 0.316 µM) | IC50 (second compound 1 µM) | IC50 (second compound 3.16 µM) | IC50 (second compound 10 µM)

CC[C@@]1(O)C(=O)OCc2c1cc1n(c2=O)Cc2cc3c(CN(C)C)c(O)ccc3nc2-1 + Cc1[nH]c2ccc(F)cc2c1-c1nc2c3cccnc3c3ncccc3c2[nH]1
47.8 nM: IC50 (second compound 0.1 µM)
37.9 nM: IC50 (second compound 10 µM)
52.3 nM: IC50 (second compound 3.16 µM)
inactive: viability, T/C [37] 97.3% | viability, T/C [38] 95.9% | viability, T/C [39] 94.7% | viability, T/C [1] 69.2% | viability, T/C [40] 25% | viability, T/C [3] 26.9% | viability, T/C [41] 114% | viability, T/C [42] 93.7% | viability, T/C [43] 102% | viability, T/C [7] 66% | viability, T/C [44] 20.8% | viability, T/C [9] 21.8% | viability, T/C [45] 102% | viability, T/C [46] 119% | viability, T/C [47] 92.7% | viability, T/C [13] 65% | viability, T/C [48] 19.7% | viability, T/C [15] 20.7% | viability, T/C [49] 103% | viability, T/C [50] 99.3% | viability, T/C [51] 94.6% | viability, T/C [19] 62.4% | viability, T/C [52] 19.6% | viability, T/C [21] 20.7% | viability, T/C [53] 97.7% | viability, T/C [54] 101% | viability, T/C [55] 85% | viability, T/C [25] 70.9% | viability, T/C [56] 20.8% | viability, T/C [27] 25.2% | viability, T/C [57] 100% | viability, T/C [58] 83.9% | viability, T/C [59] 82.3% | viability, T/C [31] 56.7% | viability, T/C [60] 23.2% | viability, T/C [33] 23%
45.4 nM: IC50 (second compound 0.316 µM)
52.7 nM: IC50 (second compound 0.0316 µM)
44.3 nM: IC50 (second compound 1 µM)

COc1cc(C2c3cc4c(cc3C(OC3OC5COC(C)OC5C(O)C3O)C3COC(=O)C23)OCO4)cc(OC)c1O (stereo not given) + Cc1[nH]c2ccc(F)cc2c1-c1nc2c3cccnc3c3ncccc3c2[nH]1
1000 nM: IC50 (second compound 3.16 µM)
inactive: viability, T/C [1] 112% | viability, T/C [2] 92.4% | viability, T/C [3] 99.7% | viability, T/C [4] 52% | viability, T/C [5] 22.7% | viability, T/C [6] 13.3% | viability, T/C [7] 103% | viability, T/C [8] 92.3% | viability, T/C [9] 88% | viability, T/C [10] 56.8% | viability, T/C [11] 25.6% | viability, T/C [12] 13.3% | viability, T/C [13] 106% | viability, T/C [14] 101% | viability, T/C [15] 83.7% | viability, T/C [16] 55.6% | viability, T/C [17] 23.9% | viability, T/C [18] 12.4% | viability, T/C [19] 93.7% | viability, T/C [20] 98.3% | viability, T/C [21] 86.2% | viability, T/C [22] 53.5% | viability, T/C [23] 21.2% | viability, T/C [24] 13.5% | viability, T/C [25] 115% | viability, T/C [26] 94.7% | viability, T/C [27] 98.7% | viability, T/C [28] 48.5% | viability, T/C [29] 22.9% | viability, T/C [30] 13.4% | viability, T/C [31] 97.1% | viability, T/C [32] 84.4% | viability, T/C [33] 80.7% | viability, T/C [34] 55.3% | viability, T/C [35] 23% | viability, T/C [36] 13.2%
1300 nM: IC50 (second compound 0.1 µM)
1180 nM: IC50 (second compound 0.316 µM)
1120 nM: IC50 (second compound 0.0316 µM)
1170 nM: IC50 (second compound 10 µM)
1130 nM: IC50 (second compound 1 µM)

Cc1cccc(N(C)C(=O)C2C(O)CCN2c2nc(C)cc(C(F)(F)F)c2C#N)c1 (stereo not given) + Cc1[nH]c2ccc(F)cc2c1-c1nc2c3cccnc3c3ncccc3c2[nH]1
inactive: viability, T/C [1] 102% | viability, T/C [2] 94.9% | viability, T/C [3] 104% | viability, T/C [4] 102% | viability, T/C [5] 108% | viability, T/C [6] 98% | viability, T/C [7] 102% | viability, T/C [8] 100% | viability, T/C [9] 103% | viability, T/C [10] 97.7% | viability, T/C [11] 115% | viability, T/C [12] 108% | viability, T/C [13] 104% | viability, T/C [14] 104% | viability, T/C [15] 109% | viability, T/C [16] 101% | viability, T/C [17] 109% | viability, T/C [18] 110% | viability, T/C [19] 103% | viability, T/C [20] 105% | viability, T/C [21] 113% | viability, T/C [22] 107% | viability, T/C [23] 112% | viability, T/C [24] 106% | viability, T/C [25] 86.8% | viability, T/C [26] 88.7% | viability, T/C [27] 97.4% | viability, T/C [28] 106% | viability, T/C [29] 103% | viability, T/C [30] 105% | viability, T/C [31] 105% | viability, T/C [32] 95.8% | viability, T/C [33] 101% | viability, T/C [34] 90.2% | viability, T/C [35] 99% | viability, T/C [36] 101%
> 10000 nM: IC50 (second compound 0.0316 µM) | IC50 (second compound 0.1 µM) | IC50 (second compound 0.316 µM) | IC50 (second compound 1 µM) | IC50 (second compound 3.16 µM) | IC50 (second compound 10 µM)

Cn1ncnc1[C@H]1c2n[nH]c(=O)c3cc(F)cc(c23)N[C@@H]1c1ccc(F)cc1 + Cc1[nH]c2ccc(F)cc2c1-c1nc2c3cccnc3c3ncccc3c2[nH]1
> 316 nM: IC50 (second compound 0.0316 µM) | IC50 (second compound 0.1 µM) | IC50 (second compound 0.316 µM) | IC50 (second compound 1 µM) | IC50 (second compound 3.16 µM) | IC50 (second compound 10 µM)
inactive: viability, T/C [37] 115% | viability, T/C [38] 95.3% | viability, T/C [39] 101% | viability, T/C [1] 87.7% | viability, T/C [40] 97.4% | viability, T/C [3] 84% | viability, T/C [41] 93.6% | viability, T/C [42] 97.6% | viability, T/C [43] 94.4% | viability, T/C [7] 104% | viability, T/C [44] 86.1% | viability, T/C [9] 77.6% | viability, T/C [45] 101% | viability, T/C [46] 99.6% | viability, T/C [47] 91.9% | viability, T/C [13] 92.7% | viability, T/C [48] 90.7% | viability, T/C [15] 83.8% | viability, T/C [49] 107% | viability, T/C [50] 104% | viability, T/C [51] 91.6% | viability, T/C [19] 98% | viability, T/C [52] 83.5% | viability, T/C [21] 81% | viability, T/C [53] 93.9% | viability, T/C [54] 98.5% | viability, T/C [55] 92.1% | viability, T/C [25] 83% | viability, T/C [56] 82.3% | viability, T/C [27] 82% | viability, T/C [57] 87.4% | viability, T/C [58] 100% | viability, T/C [59] 93% | viability, T/C [31] 78.4% | viability, T/C [60] 82.4% | viability, T/C [33] 76.1%
